According to PubChem BioAssay (NCI):
Where “and” joins values, the source holds several entries; their conditions need not be identical. Equal values may be shown once.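 Exposure lasted 48 hours, with cells grown in 96-well plates and compounds tested at five concentrations. GI50 = concentration required for 50% inhibition of growth. The concentration for full growth arrest is given as TGI.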

Columns and labels:
Assay in all cases: growth of human tumour cells (NCI), 48 h
[1] = system: MDA-MB-435
[2] = system: MDA-N
[3] = system: DMS 114 small cell lung
[4] = system: DMS 273 small cell lung
[5] = system: KM20L2 colon
[6] = system: SNB-78 CNS
[7] = system: HOP-18 NSCLC
[8] = system: M19-MEL melanoma

## CC12CCC3C(CC=C4CC(O)CCC43C)C1C/C(=C\N1CCCC1)C2=O (stereo not given)
[1]
  GI50: > 100 µM
  TGI: > 100 µM

## CCCC1c2c(ccc3ccccc23)Oc2ccc3ccccc3c21
[1]
  TGI: > 100 µM
[2]
  TGI: > 100 µM

## Oc1ccc(Cc2ccc(O)c3ncccc23)c2cccnc12
[1]
  GI50: 0.0383 µM
  TGI: > 100 µM

## O=Cc1c(-c2cc(O)ccc2O)nc2sccn12
[1]
  GI50: 15.6 µM
  TGI: 34.2 µM

## COc1ccccc1-[n+]1cc(-c2ccc(-c3ccccc3)cc2)n2c1CCCCC2
[1]
  GI50: 0.27 µM
  TGI: 3.6 µM

## COc1cc(Nc2nc3cc(N)cc(N)c3nc2-c2ccccc2)cc(OC)c1
[1]
  GI50: 11.5 µM
  TGI: 23.8 µM
[2]
  GI50: 13 µM
  TGI: 35.9 µM

## O=C1c2cccc3cc([N+](=O)[O-])cc(c23)C(=O)N1CCNCCNCCNCCN1C(=O)c2cccc3cc([N+](=O)[O-])cc(c23)C1=O
[3]
  TGI: 0.41 µM and 0.264 µM
[4]
  TGI: 0.177 µM and 0.23 µM
[5]
  TGI: 0.576 µM
[6]
  GI50: 0.0474 µM
  TGI: 0.399 µM and 0.686 µM

## CC(C)C(=O)/C=C/c1ccccc1
[4]
  TGI: > 100 µM
[7]
  TGI: > 100 µM
[5]
  TGI: > 100 µM
[8]
  TGI: > 100 µM
[6]
  TGI: > 100 µM

## COP(=O)(OC)C(NC(c1ccccc1)c1ccccc1)c1ccc2c(c1)OCO2 (stereo not given)
[1]
  GI50: 33.3 µM
  TGI: 94.8 µM

## O=c1c2ccccc2c2ccccc2c(=O)n1-c1cc2c3ccccc3ccc2c2ccccc12
[1]
  TGI: > 100 µM
[2]
  TGI: > 100 µM

## Nc1ccc2c(SCCSc3c4ccccc4nc4cc(N)ccc34)c3ccccc3nc2c1
[1]
  TGI: > 100 µM

## c1ccc(Cc2nc3ccc(Nc4ncnc5ccccc45)cc3[nH]2)cc1
[1]
  GI50: > 25 µM
  TGI: > 25 µM

## COc1cc2oc(=O)ccc2cc1C1OC(=O)C2OC21C (stereo not given)
[1]
  TGI: > 100 µM
[2]
  TGI: > 100 µM

## C[C@@H]1C=C(CCCCCCCCCCC[C@H](O)[C@@H]2CCC(=O)O2)C(=O)O1
[1]
  GI50: 24.3 µM
  TGI: 60.2 µM

## C/C(O)=C(\N=O)C(=O)NCCc1ccccc1
[3]
  TGI: > 60 µM
[4]
  TGI: > 93.4 µM
[7]
  TGI: > 100 µM
[5]
  TGI: > 100 µM
[8]
  TGI: > 100 µM
[6]
  TGI: > 100 µM

## CSc1nc2c(c(=O)[nH]1)N=C1c3ccccc3C(=O)C1C(c1ccc(F)cc1)N2 (stereo not given)
[1]
  GI50: 1.65 µM
  TGI: 8.76 µM

## Cc1c(C#N)cccc1-c1cc(-c2cn(Cc3cccc(C(C)(C)O)n3)nn2)nc(N)n1
[1]
  GI50: 26.8 µM
  TGI: > 100 µM

## O=C(O)C(=Cc1ccnc2ccccc12)C(=O)O
[2]
  TGI: > 100 µM

## Cc1ccc2c(c1)nc(C(=O)c1ccco1)c(C(F)(F)F)[n+]2[O-]
[1]
  GI50: > 100 µM
  TGI: > 100 µM

## COCCn1cc(-c2csc(-c3c[nH]c4ccccc34)n2)c2cccnc21
[1]
  GI50: 0.863 µM
  TGI: 5.25 µM

## CC(C)(C)N1CCC1C(N)=O (stereo not given)
[1]
  GI50: > 100 µM
  TGI: > 100 µM

## CC(=O)Nc1ccc(/C=C/[N+](=O)[O-])cc1
[1]
  TGI: 9.23 µM
[2]
  TGI: 6.59 µM

## Nc1ccccc1C#C/C=C\C#Cc1ccccc1C(F)(F)F
[1]
  GI50: 0.355 µM
  TGI: 1.3 µM

## O=S(=O)([O-])c1cccc2cccc(N=Cc3ccccc3[O-])c12.O=S(=O)([O-])c1cccc2cccc(N=Cc3ccccc3[O-])c12.[O]=[U]=[O]
[3]
  GI50: 54 µM
  TGI: > 100 µM
[4]
  GI50: 42.7 µM
  TGI: > 100 µM
[7]
  GI50: > 100 µM
  TGI: > 100 µM
[5]
  GI50: > 100 µM
  TGI: > 100 µM
[8]
  GI50: > 100 µM
  TGI: > 100 µM
[6]
  GI50: > 100 µM
  TGI: > 100 µM

## O=C(/C=C/c1cccnc1)NCCCCC1CCN(C(=O)c2ccccc2)CC1
[1]
  GI50: < 0.01 µM
  TGI: > 100 µM

## CCN(Cc1cccc(OC)c1)c1ccc(CO)c(Cl)c1
[1]
  GI50: 16.6 µM
  TGI: 35.6 µM

## OC1(C(O)(c2ccc(-c3ccccc3)cc2)c2ccc(-c3ccccc3)cc2)CCCCC1
[1]
  TGI: > 100 µM
[2]
  TGI: > 100 µM

## CCN(CC)c1ccc(/C=C\c2cc(C)c3cc(C)ccc3n2)cc1
[1]
  GI50: 2.1 µM
  TGI: > 100 µM

## CC[C@]1(O)CC2CN(CCc3c([nH]c4ccccc34)[C@@](C(=O)OC)(c3cc4c(cc3OC)N(C)[C@H]3[C@@](O)(C(=O)OC)[C@H](OC(C)=O)[C@]5(CC)C=CCN6CC[C@]43[C@@H]65)C2)C1 (stereo not given in full)
[1]
  GI50: < 0.005 µM
  TGI: < 0.005 µM

## O=C1CCC(Cc2ccc(Cl)cc2Cl)C(=O)N1 (stereo not given)
[1]
  TGI: > 100 µM

## CCCCCCCCCC(=O)CC(=O)c1ccc(O)cc1O
[4]
  TGI: 74.1 µM
[7]
  TGI: 81.9 µM
[5]
  TGI: > 100 µM

## O=C1C=C[C@@]23CC1C(O)C[C@H]2C=Cc1ccccc13 (stereo not given in full)
[3]
  TGI: > 100 µM
[5]
  TGI: > 100 µM
[8]
  TGI: > 100 µM

## CCOC(=O)CC(=O)Sc1ccccc1
[3]
  TGI: 32 µM
[4]
  TGI: 46 µM
[7]
  TGI: > 100 µM
[5]
  TGI: 47.5 µM
[8]
  TGI: 48.4 µM
